# Measurements reported in patent publication EP0454444A1, “Glutarimide derivatives and herbicides” (NISSAN CHEMICAL INDUSTRIES LTD., priority 1990, dated 1991).
# What was measured:
# Assay in all cases: Herbicidal effect test by soil treatment
# Assay type in all cases: in vivo
# [1] = test system: wheat (Triticum aestivum); conditions: crop plant, three weeks after spraying
# In short: (§1)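 Mixed seeds sown in sterilized diluvial soil, covered ~1 cm; herbicide diluted in water, sprayed on soil surface at predetermined a.i. rates; read-out at 3 wk as top fresh weight vs untreated control.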
# [2] = test system: rice (Oryza sativa); conditions: crop plant, three weeks after spraying
# In short: as §1
# [3] = test system: barnyardgrass (Echinochloa crusgalli); conditions: three weeks after spraying
# In short: as §1
# [4] = test system: soybean (Glysine max); conditions: crop plant, three weeks after spraying
# In short: as §1
# [5] = test system: cotton (Gossypium herbaceum); conditions: crop plant, three weeks after spraying
# In short: as §1
# [6] = test system: corn (Zea mays); conditions: crop plant, three weeks after spraying
# In short: as §1
# [7] = test system: hairly galinosoga (Galinsoga ciliat); conditions: three weeks after spraying
# In short: as §1
# [8] = test system: large crabgrass (Digitaria adscendens); conditions: three weeks after spraying
# In short: as §1
# [9] = test system: rorippa ssp. (Rorippa atrovirens); conditions: three weeks after spraying
# In short: as §1
# [10] = test system: black nightshade (Solanum nigrum L.); conditions: three weeks after spraying
# In short: as §1
# [11] = test system: annual sedge (Cyperus microiria); conditions: three weeks after spraying
# In short: as §1
smiles,measurement,setting,value
C#CCN1C(=O)COc2cc(F)c(N3C(=O)CC(C)CC3=O)cc21 [1-23],"herbicidal effect, W (Triticum vulgare)",[1]; application amount 0.4 g/a,4 (Growth control rates of 70 to 90%)
same,"herbicidal effect, W (Triticum vulgare)",[1]; application amount 0.8 g/a,"5 (Growth control,rates of more than 90% (almost completely withered))"
same,"herbicidal effect, W (Triticum vulgare)",[1]; application amount 1.6 g/a,"5 (Growth control,rates of more than 90% (almost completely withered))"
same,"herbicidal effect, R (Oryza sativa)",[2]; application amount 0.4 g/a,2 (Growth control rates of 20 to 40%)
same,"herbicidal effect, R (Oryza sativa)",[2]; application amount 0.8 g/a,3 (Growth control rates of 40 to 70%)
same,"herbicidal effect, R (Oryza sativa)",[2]; application amount 1.6 g/a,"5 (Growth control,rates of more than 90% (almost completely withered))"
same,"herbicidal effect, N (Echinochloa crusgalli)",[3]; application amount 0.4 g/a,"5 (Growth control,rates of more than 90% (almost completely withered))"
same,"herbicidal effect, N (Echinochloa crusgalli)",[3]; application amount 0.8 g/a,"5 (Growth control,rates of more than 90% (almost completely withered))"
same,"herbicidal effect, N (Echinochloa crusgalli)",[3]; application amount 1.6 g/a,"5 (Growth control,rates of more than 90% (almost completely withered))"
same,"herbicidal effect, S (Glysine max)",[4]; application amount 0.4 g/a,0 (Growth control rates of less than 5% (substantially no effect))
same,"herbicidal effect, S (Glysine max)",[4]; application amount 0.8 g/a,1 (Growth control rates of 5 to 20%)
same,"herbicidal effect, S (Glysine max)",[4]; application amount 1.6 g/a,2 (Growth control rates of 20 to 40%)
same,"herbicidal effect, C (Gossypium herbaceum)",[5]; application amount 0.4 g/a,2 (Growth control rates of 20 to 40%)
same,"herbicidal effect, C (Gossypium herbaceum)",[5]; application amount 0.8 g/a,3 (Growth control rates of 40 to 70%)
same,"herbicidal effect, C (Gossypium herbaceum)",[5]; application amount 1.6 g/a,4 (Growth control rates of 70 to 90%)
same,"herbicidal effect, T (Zea mays)",[6]; application amount 0.4 g/a,4 (Growth control rates of 70 to 90%)
same,"herbicidal effect, T (Zea mays)",[6]; application amount 0.8 g/a,"5 (Growth control,rates of more than 90% (almost completely withered))"
same,"herbicidal effect, T (Zea mays)",[6]; application amount 1.6 g/a,"5 (Growth control,rates of more than 90% (almost completely withered))"
same,"herbicidal effect, D (Galinsoga ciliat)",[7]; application amount 0.4 g/a,"5 (Growth control,rates of more than 90% (almost completely withered))"
same,"herbicidal effect, D (Galinsoga ciliat)",[7]; application amount 0.8 g/a,"5 (Growth control,rates of more than 90% (almost completely withered))"
same,"herbicidal effect, D (Galinsoga ciliat)",[7]; application amount 1.6 g/a,"5 (Growth control,rates of more than 90% (almost completely withered))"
same,"herbicidal effect, M (Digitaria adscendens)",[8]; application amount 0.4 g/a,"5 (Growth control,rates of more than 90% (almost completely withered))"
same,"herbicidal effect, M (Digitaria adscendens)",[8]; application amount 0.8 g/a,"5 (Growth control,rates of more than 90% (almost completely withered))"
same,"herbicidal effect, M (Digitaria adscendens)",[8]; application amount 1.6 g/a,"5 (Growth control,rates of more than 90% (almost completely withered))"
same,"herbicidal effect, I (Rorippa indica)",[9]; application amount 0.4 g/a,"5 (Growth control,rates of more than 90% (almost completely withered))"
same,"herbicidal effect, I (Rorippa indica)",[9]; application amount 0.8 g/a,"5 (Growth control,rates of more than 90% (almost completely withered))"
same,"herbicidal effect, I (Rorippa indica)",[9]; application amount 1.6 g/a,"5 (Growth control,rates of more than 90% (almost completely withered))"
same,"herbicidal effect, H (Solanum nigrum L.)",[10]; application amount 0.4 g/a,"5 (Growth control,rates of more than 90% (almost completely withered))"
same,"herbicidal effect, H (Solanum nigrum L.)",[10]; application amount 0.8 g/a,"5 (Growth control,rates of more than 90% (almost completely withered))"
same,"herbicidal effect, H (Solanum nigrum L.)",[10]; application amount 1.6 g/a,"5 (Growth control,rates of more than 90% (almost completely withered))"
same,"herbicidal effect, K (Cyperus microiria)",[11]; application amount 0.4 g/a,"5 (Growth control,rates of more than 90% (almost completely withered))"
same,"herbicidal effect, K (Cyperus microiria)",[11]; application amount 0.8 g/a,"5 (Growth control,rates of more than 90% (almost completely withered))"
same,"herbicidal effect, K (Cyperus microiria)",[11]; application amount 1.6 g/a,"5 (Growth control,rates of more than 90% (almost completely withered))"
CCOC(=O)c1cc(N2C(=O)CCC(C)C2=O)c(F)cc1Cl (stereo not drawn) [1-12],"herbicidal effect, W (Triticum vulgare)",[1]; application amount 6.3 g/a,1 (Growth control rates of 5 to 20%)
same,"herbicidal effect, R (Oryza sativa)",[2]; application amount 6.3 g/a,2 (Growth control rates of 20 to 40%)
same,"herbicidal effect, N (Echinochloa crusgalli)",[3]; application amount 6.3 g/a,2 (Growth control rates of 20 to 40%)
same,"herbicidal effect, S (Glysine max)",[4]; application amount 6.3 g/a,0 (Growth control rates of less than 5% (substantially no effect))
same,"herbicidal effect, C (Gossypium herbaceum)",[5]; application amount 6.3 g/a,0 (Growth control rates of less than 5% (substantially no effect))
same,"herbicidal effect, T (Zea mays)",[6]; application amount 6.3 g/a,0 (Growth control rates of less than 5% (substantially no effect))
same,"herbicidal effect, D (Galinsoga ciliat)",[7]; application amount 6.3 g/a,4 (Growth control rates of 70 to 90%)
same,"herbicidal effect, M (Digitaria adscendens)",[8]; application amount 6.3 g/a,"5 (Growth control,rates of more than 90% (almost completely withered))"
same,"herbicidal effect, I (Rorippa indica)",[9]; application amount 6.3 g/a,"5 (Growth control,rates of more than 90% (almost completely withered))"
same,"herbicidal effect, H (Solanum nigrum L.)",[10]; application amount 6.3 g/a,2 (Growth control rates of 20 to 40%)
same,"herbicidal effect, K (Cyperus microiria)",[11]; application amount 6.3 g/a,"5 (Growth control,rates of more than 90% (almost completely withered))"
O=C1COc2cc(F)c(N3C(=O)CC(C(F)(F)F)CC3=O)cc2N1CC1CCCCC1 [1-28],"herbicidal effect, W (Triticum vulgare)",[1]; application amount 1.6 g/a,2 (Growth control rates of 20 to 40%)
same,"herbicidal effect, R (Oryza sativa)",[2]; application amount 1.6 g/a,0 (Growth control rates of less than 5% (substantially no effect))
same,"herbicidal effect, N (Echinochloa crusgalli)",[3]; application amount 1.6 g/a,"5 (Growth control,rates of more than 90% (almost completely withered))"
same,"herbicidal effect, S (Glysine max)",[4]; application amount 1.6 g/a,0 (Growth control rates of less than 5% (substantially no effect))
same,"herbicidal effect, C (Gossypium herbaceum)",[5]; application amount 1.6 g/a,0 (Growth control rates of less than 5% (substantially no effect))
same,"herbicidal effect, T (Zea mays)",[6]; application amount 1.6 g/a,0 (Growth control rates of less than 5% (substantially no effect))
same,"herbicidal effect, D (Galinsoga ciliat)",[7]; application amount 1.6 g/a,"5 (Growth control,rates of more than 90% (almost completely withered))"
same,"herbicidal effect, M (Digitaria adscendens)",[8]; application amount 1.6 g/a,"5 (Growth control,rates of more than 90% (almost completely withered))"
same,"herbicidal effect, I (Rorippa indica)",[9]; application amount 1.6 g/a,"5 (Growth control,rates of more than 90% (almost completely withered))"
same,"herbicidal effect, H (Solanum nigrum L.)",[10]; application amount 1.6 g/a,"5 (Growth control,rates of more than 90% (almost completely withered))"
same,"herbicidal effect, K (Cyperus microiria)",[11]; application amount 1.6 g/a,"5 (Growth control,rates of more than 90% (almost completely withered))"
CC(C)OC(=O)c1cc(N2C(=O)CC(C(C)C)C(C)C2=O)c(F)cc1Cl (stereo not drawn) [1-5],"herbicidal effect, W (Triticum vulgare)",[1]; application amount 1.6 g/a,1 (Growth control rates of 5 to 20%)
same,"herbicidal effect, R (Oryza sativa)",[2]; application amount 1.6 g/a,1 (Growth control rates of 5 to 20%)
same,"herbicidal effect, N (Echinochloa crusgalli)",[3]; application amount 1.6 g/a,4 (Growth control rates of 70 to 90%)
same,"herbicidal effect, S (Glysine max)",[4]; application amount 1.6 g/a,0 (Growth control rates of less than 5% (substantially no effect))
same,"herbicidal effect, C (Gossypium herbaceum)",[5]; application amount 1.6 g/a,0 (Growth control rates of less than 5% (substantially no effect))
same,"herbicidal effect, T (Zea mays)",[6]; application amount 1.6 g/a,0 (Growth control rates of less than 5% (substantially no effect))
same,"herbicidal effect, D (Galinsoga ciliat)",[7]; application amount 1.6 g/a,"5 (Growth control,rates of more than 90% (almost completely withered))"
same,"herbicidal effect, M (Digitaria adscendens)",[8]; application amount 1.6 g/a,"5 (Growth control,rates of more than 90% (almost completely withered))"
same,"herbicidal effect, I (Rorippa indica)",[9]; application amount 1.6 g/a,"5 (Growth control,rates of more than 90% (almost completely withered))"
same,"herbicidal effect, H (Solanum nigrum L.)",[10]; application amount 1.6 g/a,"5 (Growth control,rates of more than 90% (almost completely withered))"
same,"herbicidal effect, K (Cyperus microiria)",[11]; application amount 1.6 g/a,"5 (Growth control,rates of more than 90% (almost completely withered))"
